“Also recorded” adds a separate entry of the source. Where two headings read alike, the source gives them in different places. Where a SMILES comes first, the peptide text is derived from it. Bridges are numbered along the chain shown (N, C = ends). Where no end group is shown, it is not given here.
Columns and labels:
chicken rectum = system: chicken rectum
Method: Relaxant activity in chicken rectum was measured in accordance with the method of […] and Currie ([…]. and Matsuo, H., Biochem. Biophys. Res. Commun., 118, 131-139, 1984; Currie, […]., Cole, […]. and Needleman, P. Science, 221, 71-73, 1983). The values are averages of six repeats. […] Although cCNP lacked the tail sequence at the C-terminal which had been considered to be important for analog peptides in displaying biological activities such as diuretic action (Watanabe, T. X., Noda, Y., Chino […]. and Imai, M. Eur. J.

Male SD rats [1] = experiment: Diuretic and natriuretic action in anesthetized rats (urine amount, electrolyte excretion); type: in vivo, rat; conditions: for excretion Cl- / excretion K+ / excretion Na+ / excretion urine: urine 15 min after versus before, Mean±S.E.M.
Method: (§1) Diuretic action of cCNP was measured in accordance with the method described in […] et al and Sudoh et al ([…]. et al., Biochem. Biophys. Res. Commun., 118, 131-139, 1984; Sudoh, […]., Minamino, N. and Matsuo, H. Nature, 322, 78-81, 1988). Male SD rats (weight 300-400 g) were anesthetized by intraperitoneally receiving 50 mg/kg pentobarbitol, and a tracheal cannula (PE-240, Cray Adams) was provided to secure an airway. A cannula for measuring the blood pressure (PE-50) was inserted into one of the femoral arteries, and Ringer solution was injected through a cannula (PE-10) inserted into the femoral venous, at a constant rate of 1.8 ml/hr. Urine was collected into a test tube through a bladder cannula of silastic tube (inside diameter 0.02 inch, outside diameter 0.037 inch, Dow Corning). The collection of urine was carried out for 15 min before the administration of the peptides, at 5 min intervals after the administration till 15 min, and then at appropriate time intervals. The effect of the peptides was measured by comparing the amount of the urine samples and the concentration of the electrolyte in the urine samples, as well as by the change of the blood pressure. In the above assay, a predetermined amount of cCNP was dissolved in 0.1N acetic acid, and neutralized with one tenth volume of 1.3M Tris solution. Then, the solution was diluted with 50 μl of a sterile physiological water, and administered through the cervical vein. […] In Table 2, diuretic and natriuretic responses are shown in terms of the amount of the urine, the percentages in the […] of the excretion of Na^+, K^+ and Cl^- (Means±S.E.M.), in which urine samples were collected separately over 15 min before and after the intravenous injection of the peptides to anesthetized rats. Three to six rats were used for each peptide. […] In a typical experiment, the blood pressure at the contract phase of heart was decreased by about 5% over a period of 30 min by the action of 30 μg/kg of cCNP. […] Biochem. Biophys. Res. Commun., 168, 863-870, 1990).

Male SD rats [2] = experiment: Vasodepressor activity (change of blood pressure) in anesthetized rats; type: in vivo, rat
Method: as §1

[3] = 30 μg/kg intravenous, anesthetized rats
[4] = 90 μg/kg intravenous, anesthetized rats
[5] = 200 μg/kg intravenous, anesthetized rats
[6] = 3.0 μg/kg intravenous, anesthetized rats

## CC[C@H](C)[C@@H]1NC(=O)[C@H](CCCNC(=N)N)NC(=O)[C@H](CC(=O)O)NC(=O)[C@H](CC(C)C)NC(=O)[C@H](CCCCN)NC(=O)[C@H](C(C)C)NC(=O)CNC(=O)[C@H](Cc2ccccc2)NC(=O)[C@@H](NC(=O)[C@H](CO)NC(=O)[C@H](CCCNC(=N)N)NC(=O)[C@H](CO)NC(=O)[C@H](CC(C)C)NC(=O)CN)CSSC[C@@H](C(=O)O)NC(=O)CNC(=O)[C@H](CC(C)C)NC(=O)CNC(=O)[C@H](CO)NC(=O)[C@H](CCSC)NC(=O)[C@H](CO)NC(=O)CNC1=O [cCNP] (H-GLSRSCFGVKLDRIGSMSGLGC-OH; disulfide 6-22)
Chicken rectum
  relative activity: 321
Chicken rectum; cCNP versus fANP-21
  relaxant activity higher than fANP-21 (fold): ~5 times
Chicken rectum; cCNP versus α-hANP
  relaxant activity higher than α-hANP (fold): about 2 times
Male SD rats [1]; [3]
  excretion Cl-: 171 ± 2%
  excretion K+: 145 ± 12%
  excretion Na+: 160 ± 9%
  excretion urine: 153 ± 32%
Male SD rats [1]; [4]
  excretion Cl-: 214 ± 5%
  excretion K+: 163 ± 02%
  excretion Na+: 193 ± 6%
  excretion urine: 261 ± 19%
Male SD rats [1]; [5]
  excretion Cl-: 338 ± 107%
  excretion K+: 174 ± 18%
  excretion Na+: 385 ± 50%
  excretion urine: 293 ± 50%
Male SD rats [1]; anesthetized rats, ratio to α-hANP
  diuretic and natriuretic actions compared to that of α-hANP: about 1/100
Male SD rats [1]; rats
  natriuretic action (in words): natriuretic action; also recorded: increase dose dependently
Male SD rats [2]; [3]
  decrease of blood pressure: 4.4 ± 1.9%
Male SD rats [2]; 30 μg/kg, over a period of 30 min, typical experiment, anesthetized rats
  decrease of the blood pressure at the contract phase of heart: about 5%
Male SD rats [2]; [4]
  decrease of blood pressure: 0.3 ± 2.0%
Male SD rats [2]; [5]
  decrease of blood pressure: 11.5 ± 1.5%
Male SD rats [2]; rats
  vasodepressor activity (in words): weak vasodepressor action; also recorded: vasodepressor activity; also recorded: increase dose dependently

## α-hANP: A-type (atrial) natriuretic peptide used as comparison; activity set to 100 (SLRRSSCFGGRMDRIGAQSGLGCNSFRY; ends and bridges not checked; cysteine pairing not given here; UniProt P01160 124-151, looked up) [reference compound]
Chicken rectum; relaxant activity of equimolar amount of peptides, activity of hANP = 100, averages of six repeats
  relative activity: 100
Male SD rats [1]; [6]
  excretion Cl-: 362 + 34%
  excretion K+: 220 ± 22%
  excretion Na+: 461 ± 41%
  excretion urine: 414 ± 46%
Male SD rats [2]; [6]
  decrease of blood pressure: 9.0 ± 2.5%
